This experiment relates to HEK293 cells. Kind of experiment: HEK293 VLCFA-LPC IC50 determination (13C-labeled C26:0 LPC by UHPLC/MS). Format: cell-based, human. The settings on record: Homo sapiens. A digest of the protocol: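 Suspension HEK293 cells (final 0.5 million/mL after mixing with equal volume) incubated 48 hours with compound plus 13C-acetate (1.0 mg/mL in added media), shaking at 37° C. Lipids extracted with hexane/isopropanol or methanol, C13:0 LPC standard. UHPLC/MS of 13C-labeled C26:0 LPC (638.500/104.100 m/z); IC50 by four-parameter fit.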

What is called IC50 is the midpoint of a concentration-inhibition curve.

SMILES strings stand for the structures. Read-outs that look alike come from different tables or passages of the source.

For the compound `O=C(Nc1ccn(-c2ccnc(F)c2)n1)C1(c2ccccc2F)CC1` [Compound 87, 1-(2-fluorophenyl)-N-[1-(2-fluoro-4-pyridyl)pyrazol-3-yl]cyclopropanecarboxamide], the IC50 reads like this: (HEK293, 48 h, HEK293, half maximal reduction in C26:0 LPC, about 48 hours, read-out: IC50) 8 nM; (HEK293, HEK293 cells, average of one or more replicates, read-out: Average HEK293 IC50) 13 nM.

Source of the values: US20180251431A1 (VERTEX PHARMACEUTICALS INCORPORATED, priority 2016, published 2018).
